# Measured values as given in patent publication US12030896B2, “PIKfyve inhibitors” (Mayo Foundation for Medical Education and Research, priority 2018, dated 2024).
# Entries after “also recorded” stand apart in the source; their conditions may differ.
# Experiments:
# [1] = tested on: 468 kinases; assay: Kinase selectivity panel (Treespot dendrogram); assay type: binding
# Procedure: In contrast, 50 nM Apilimod inhibited two kinases to 1% or 10%, and 3 kinases to 35% of control. To examine non-specific binding at higher concentrations, Example 1, Example 3, and Apilimod were tested at 5000 nM. […] PIKfyve is represented at the bottom left of each dendrogram.
# [2] = tested on: U251 glioblastoma cell; assay: Cell killing in combination with vemurafenib; assay type: cell-based, human
# Procedure: A 25 mM stock of vemurafenib (obtained from Selleckchem) in DMSO was diluted to 2× the indicated concentration into the cell suspension immediately prior to plating the cell suspension onto the pre-diluted Example 1 or Example 3, to result in a final 1× concentration of both compounds.
# See FIG. 13 for showing of U251 glioblastoma cell killing by Example 1 alone or in the presence of 10 μM vemurafenib over a 72 hour time course.
structure (smiles),measurement,setting,value
"Cc1ccc(Nc2nc(N/N=C/c3c[nH]c4ccccc34)cc(N3CCOCC3)n2)cc1 [Example 3, (E)-4-(2-((1H-indol-3-yl)methylene)hydrazinyl)-6-morpholino-N-(p-tolyl)pyrimidin-2-amine]",number of kinases blocked to 1% activity level,[1]; 5000 nM,1
same,number of kinases blocked to 10% activity level,[1]; 5000 nM,1
same,number of kinases blocked to 35% activity level,[1]; 5000 nM,4
same,selectivity for PIKfyve,"[1]; comparison of Example 1, Example 3 and apilimod",more selective; also recorded: highest selectivity
same,killing U251 in combination with vemurafenib,[2],synergistic
